Measurements as given in US7132421B2, “CIS-imidazoles” (Hoffmann-La Roche Inc., priority 2003, dated 2006).

biological target: interaction between p53 and MDM2 proteins (recombinant GST-tagged MDM2) (Homo sapiens, UniProt Q00987); assay: ELISA of inhibition of p53-MDM2 interaction (GST-tagged MDM2 binding to immobilized p53-like peptide); details: absorption at 450 nm, triplicate
Sequence (Q00987 whole entry): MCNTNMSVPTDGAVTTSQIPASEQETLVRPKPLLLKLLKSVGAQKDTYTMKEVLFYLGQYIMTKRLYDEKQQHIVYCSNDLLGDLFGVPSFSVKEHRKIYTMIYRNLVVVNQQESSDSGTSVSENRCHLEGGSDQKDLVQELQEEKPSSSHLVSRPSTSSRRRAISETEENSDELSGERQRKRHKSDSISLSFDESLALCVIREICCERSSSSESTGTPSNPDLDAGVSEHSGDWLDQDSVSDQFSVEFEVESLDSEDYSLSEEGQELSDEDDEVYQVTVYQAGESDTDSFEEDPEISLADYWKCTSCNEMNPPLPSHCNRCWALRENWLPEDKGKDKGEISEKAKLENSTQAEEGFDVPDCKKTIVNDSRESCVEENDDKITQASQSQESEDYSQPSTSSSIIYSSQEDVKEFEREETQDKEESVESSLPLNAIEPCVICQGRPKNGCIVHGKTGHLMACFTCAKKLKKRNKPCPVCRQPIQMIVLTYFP

Row | IC50 | Structure (SMILES)
1 | 5.5 µM | CCOc1cc(OC)ccc1C1=N[C@H](CC2CCCC2)[C@H](c2ccc(Cl)cc2)N1C(=O)N1CCC(N2CCCC2)CC1 (relative stereo) [Example 28, [5-(4-Chloro-phenyl)-4-cyclopentylmethyl-2-(2-ethoxy-4-methoxy-phenyl)-4,5-dihydro-imidazol-1-yl]-(4-pyrrolidin-1-yl-piperidin-1-yl)-methanone]
2 | 0.7 µM | CCCCC[C@H]1N=C(c2ccc(OC)cc2OCC)N(C(=O)N2CCC(N3CCCC3)CC2)[C@H]1c1ccc(Cl)cc1 (relative stereo) [Example 55, [5-(4-Chloro-phenyl)-2-(2-ethoxy-4-methoxy-phenyl)-4-pentyl-4,5-dihydro-imidazol-1-yl]-(4-pyrrolidin-1-yl-piperidin-1-yl)-methanone]
3 | 13.2 µM | CCOc1cc(OC)ccc1C1=N[C@H](CC2CCCC2)[C@H](c2ccc(Cl)cc2)N1C(=O)N1CCN(C)CC1 (stereo in doubt) [Example 24, [5-(4-Chloro-phenyl)-4-cyclopentylmethyl-2-(2-ethoxy-4-methoxy-phenyl)-4,5-dihydro-imidazol-1-yl]-(4-methyl-piperazin-1-yl)-methanone]
4 | 45 µM | CCC[C@H]1N=C(c2ccc(OC)cc2OCC)N(C(=O)N2CCC(N3CCCC3)CC2)[C@H]1c1ccc(Cl)cc1 (stereo in doubt) [Example 26, [5-(4-Chloro-phenyl)-2-(2-ethoxy-4-methoxy-phenyl)-4-propyl-4,5-dihydro-imidazol-1-yl]-(4-pyrrolidin-1-yl-piperidin-1-yl)-methanone]
